Measured values reported in patent US8221658B2, “Mixed salts of diorganylphosphinic acids and carboxylic acids” (Clariant Finance (BVI) Limited, priority 2007, dated 2012).

Tests used:
[1] = Decomposition in differential thermal analysis (2% weight loss, atmosphere: air); assay type: physicochemical
Procedure: A mixture of 5 g of terephthalic acid and 3.9 g of aluminum trisdiethylphosphinate is reacted for 0.5 h at 350° C., as in example 1.

[2] = under nitrogen; cited from earlier work

Molecule: aluminum terephthalate
- Decomposition in differential thermal analysis (2% weight loss) [1]: 298 °C

Molecule: CC(C)CP(=O)([O-])CC(C)C.CC(C)CP(=O)([O-])CC(C)C.CC(C)CP(=O)([O-])CC(C)C.[Al+3] [aluminum salt of diisobutylphosphinic acid]
- Evaporation temperature [2]: 300 to 400 °C

Molecule: CCP(=O)([O-])CC.O=C([O-])c1ccc(C(=O)[O-])cc1.[Al+3] [Example 4, aluminum mono(diethylphosphinate)terephthalate]
- Decomposition in differential thermal analysis (2% weight loss) [1]: 425 °C

Molecule: aluminum trisdiethylphosphinate
- Evaporation temperature [2]: 400 to 500 °C
- Decomposition in differential thermal analysis (2% weight loss) [1]: 355 °C
